# Laboratory results as given in US20250221936A1, “ENGINEERED HEMICHANNELS, ENGINEERED VESICLES, AND USES THEREOF” (VIRGINIA TECH INTELLECTUAL PROPERTIES, INC., priority 2018, published 2025).
# “Also recorded” adds a separate entry of the source.
# Key:
# silicon wafer implants = settings: 24 hours; cited from earlier work
# ZO-1 PDZ2 = target: T1, ZO-1 PDZ2 (Homo sapiens, UniProt Q07157); test: Protein thermal shift assay, ZO-1 PDZ2; format: binding; settings: 500 μg/ml protein, 25-100 μM peptide
# T1 construct: the second of the three PDZ (PDZ2) domains of ZO-1; made in house; host or cells: E. coli BL21
# T1 sequence (Q07157 186-264 limits assumed): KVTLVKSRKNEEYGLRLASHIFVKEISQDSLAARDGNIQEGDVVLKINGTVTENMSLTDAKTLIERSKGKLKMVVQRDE
# Procedure: (§1) Thermal stability of recombinant GST-PDZ2 or Cx43 CT in the presence or absence of peptides was determined in a 96-well format. Each assay well was composed of 500 μg/ml protein, 25-100 μM of each peptide in PBS buffer, pH7.4. All assays were performed independently six times. Samples were generally prepared in 96-well plates at final volumes of 20 μL. The fluorescent dye SYPRO Orange (5000× concentrate in DMSO, ThermoFisher, S6650) was added to a final concentration of 8X. Reactions were run on QuantStudio 6 Flex Real-Time PCR system (Applied Biosystems, part of Life Technologies Corporation, CA) according to the manufacturer's recommendations using a melt protocol in 0.05-degree/see increments from 25° C. to 95° C. The Reporter Dye was “ROX” and quencher Dye and passive reference were selected as “None” for the melt curve according to manufacturer's instructions. The data were analyzed using Protein Thermal Shift™ Software v1.3 package (Applied Biosystems, CA).
# Cx43 CT = target: T2, Cx43 CT (Rattus norvegicus, UniProt P08050); test: Protein thermal shift assay, Cx43 CT; format: binding; settings: 500 μg/ml protein, 25-100 μM peptide
# T2 construct: CT: amino acids 255 to 382) alone; GST (N); made in house; host or cells: E. coli BL21
# T2 sequence (P08050 255-382): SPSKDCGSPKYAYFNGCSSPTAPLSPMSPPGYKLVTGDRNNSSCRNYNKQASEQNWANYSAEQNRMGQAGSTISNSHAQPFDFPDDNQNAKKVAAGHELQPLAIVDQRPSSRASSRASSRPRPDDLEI
# Procedure: as §1
# [1] = target: T3, PKC-ε phosphorylation of Cx43-CT substrate at Ser368 (Rattus norvegicus, UniProt P08050); test: PKC-ε Cx43 CT S368 phosphorylation assay; format: biochemical; settings: peptides at 20 μM
# T3 construct: substrate (Cx43-CT: amino acids 255 to 382); GST (N); made in house; host or cells: E. coli BL21 (Cx43 CT); PKC-ε purchased (Life, 37717L)
# T3 sequence (P08050 255-382): as above
# Procedure: PKC assay conditions were used to evaluate the PKC-ε phosphorylation of Cx43-CT substrate at Ser368 as we have described previously, with modifications 11. 400 ng/ml […] (Life, 37717L, Carlsbad, CA) was pre-diluted in enzyme dilution buffer (10 mM HEPES pH7.4, 0.01% CHAPS and 5 mM DTT) and assayed in 20 mM HEPES pH7.4, 10 mM/L MgCl2, 0.1 mM EGTA, 1× lipid mix (200 μg/ml phosphatidylserine (Avanti Polar Lipids 840032C),^20 μg/ml Diacylglycerol (Avanti Polar Lipids), 1 mM HEPES pH7.4, 0.03% CHAPS), 500 µM ATP (Sigma, A6419) and 14 μg/ml Cx43-CT substrate. Kinase assay buffer was supplemented with peptides to produce final concentrations of the reaction constituents, as indicated in figure legends. The mixture was incubated at 37° C. for 12 minutes and quenched by addition of LDS sample loading buffer (Bio Rad, 1610791). “XT sample buffer” is what was shown on the product label, whereas the component is similar as regular LDS buffer, containing about 5-10% lithium dodecyl sulphate. The reaction was Western blotted for pS368 Cx43 using the Phospho-Connexin43 (Ser368) antibody from Cell Signaling. Proteins were eluted off by stripping buffer (Millipore 2504) and re-probed for total Cx43 using the Sigma anti-rabbit antibody. Percent phosphorylation (% P) was quantified using Equation 1 and normalized with control group (PKC+, no peptide added).
# [2] = target: T4, Cx43 CT (amino acids 255 to 382) (Rattus norvegicus, UniProt P08050); test: Surface plasmon resonance, Cx43 CT analyte; format: binding; settings: biotin-peptide immobilized on streptavidin chip; analyte 0.5 to 15 μM
# T4 construct: Cx43-CT: amino acids 255 to 382; GST (N, cleaved yes); made in house; host or cells: E. coli BL21
# T4 sequence (P08050 255-382): as above
# Procedure: (§2) Efficacy of the interaction of each alpha CT1 variant with Cx43 CT or Cx43 CT-KK/QQ was tested using surface plasmon resonance (SPR) as described previously 20. In brief, SPR experiments were performed using a Biacore T200 (GE Healthcare). Equal amounts (response units/RU) of biotin-alpha CT1 variants were immobilized on each flow cell of a streptavidin-coated sensor chip (Biacore Inc) using immobilization buffer (in mM: 10 HEPES, 1 EDTA, 100 NaCl, 0.005% Tween-20) at pH 7.4. Measurements with wild-type (wt) Cx43 CT and mutant Cx43 CT-KK/QQ analytes were done in running buffer (in mM: 10 HEPES, 100 NaCl, pH 7.4) at a flow rate of 30 μl/min. Binding of analytes were verified at different concentrations, in random order (injection volume 120 μl). Interacting proteins were then unbound by injection of […] regeneration buffer (50 mM NaOH and 1 M NaCl) at a flow rate of 10 μl/min. Background levels were obtained from a reference cell containing a biotin-control peptide in which the reversed sequence of the last 9 amino acids of Cx43 was fused to biotin-antennapedia. The RU values obtained with biotin-control peptide were subtracted from the RU values obtained with the different biotin-alphaCT1 variants (wild-type or mutant) to generate the different response curves.
# Cx43 CT-KK/QQ = target: T5, Cx43 CT-KK/QQ (Rattus norvegicus, UniProt P08050, K345Q/K346Q); test: Surface plasmon resonance, Cx43 CT-KK/QQ analyte; format: binding; settings: biotin-peptide immobilized on streptavidin chip
# T5 construct: pGEX-6-P2 Cx43 CT amino acids 255-382; GST (N, cleaved yes); made in house; host or cells: E. coli BL21
# T5 sequence (P08050 255-382 K345Q/K346Q): as the sequence (P08050 255-382) above, with K91Q, K92Q counted along it
# Description: Peptides were synthesized and quality checked for fidelity and purity using High Performance Liquid Chromatography and mass spectrometry (LifeTein, Hillsborough, NJ). Biotinylated peptides were designed for surface plasmon resonance experiments. Glutathione-S-Transferase (GST) fusion protein constructs composed of the Cx43-CT (pGEX-6-P2 Cx43 CT amino acids 255-382), ZO-1 PDZ1, PDZ2 and PDZ3 were isolated and purified from isopropyl-b-D-thiogalactoside (IPTG)-induced BL21 bacteria using standard procedures, described in references 13, 14, 20. The pGEX6p2-Cx43 CT plasmid was obtained from Prof. Paul L. Sorgen (University of Nebraska Medical Center, USA). Cx43 CT mutant (Cx43 CT-KK/QQ; amino acids Lys345 Lys346 to Gln 345 Gln 346) was developed by site-directed mutagenesis of the pGEX6p2-Cx43 CT plasmid (Agilent technologies, QuikChange II Site-Directed Mutagenesis Kit). The mutation was verified by sequencing. For surface plasmon resonance experiments, the GST was removed using PreScission protease, yielding Cx43 CT protein (wild-type or mutant).
# as §2
# Cx43-Hela cells = test: Cx43 and ZO-1 immunofluorescent labeling; format: cell-based; settings: 10 μM for 2, 4, 24, or 48 hours
# Procedure: Given that the 10UM concentration of peptide was not toxic to cells, the inventors treated Cx43-Hela cells with 10 μM JM1 or JM2 for 2, 4, 24, or 48 hours followed by fixation and immunofluorescent labeling of Cx43 and ZO-1. Said peptides can be loaded into the provided EVs and can elicit results similar to those observed for naked peptide as follows. […] However, the most striking effects were on ZO-1 organization. In control cells ZO-1 localized to cell borders, often at sites of small, finger-like projections between the cells. Cytoplasmic ZO-1 was also notable. In JM-treated cells a strong contrast in the ratio of cell border to cytoplasmic ZO-1 was found, with relative levels at cell borders being increased over controls. […] There was also a noticeable increase in the number of cells per area of field, supporting the earlier observation that JM2 treated cells appeared to proliferate and survive at an increased rate.
# Cx43-HeLa = format: cell-based
# Procedure: The first tests of JM1 and JM2 were performed and the experiments centered on the basic cell biology of the peptides.
# [3] = test system: Neonatal cardiac fibroblasts (NHFs); test: Collagen synthesis by neonatal cardiac fibroblasts, Western blotting; format: cell-based, rat
# Description: Isolation and treatment of Neonatal Cardiac Fibroblasts with Cx43 based peptides (peptides used included ACT1, JM1, JM2, Antennapedia [ANT], reverse ACT1 [Rev], poly Arginine [poly r]). Said peptides with and without internalization vectors can be loaded into the provided EVs and can elicit results similar to those observed for naked peptide as follows. Neonatal cardiac fibroblasts (NHFs) were isolated from 3-4 day old rat hearts by collagenase digestion (100 U/mL) and differential attachment as previously described (Borg et ah, 1984). All cells were maintained in Dulbecco's Modified Eagle Medium (DMEM) supplemented with 10% Fetal Bovine Serum and 100 U/mL penicillin G and 100 μg/mL streptomycin and used prior to passage four. For experiments, 40,000 NHFs were plated into the wells of a 24-well tissue culture plate and grown for 24-48 hours. On the day of treatment, media was removed from each well and replaced with fresh media containing 50 μg/mL L-ascorbic acid-2-phosphate; Sigma Chemical Co., St. Louis, MO). The appropriate volume of each peptide (resuspended in sterile, deionized 18 MQ resistivity water) was added to achieve the desired final concentration (30, 90, 180 µM peptide concentrations were tested). Culture plates were incubated overnight in a 37° C. incubator with 5% C02.
# Protein Isolation and Examination of Collagen Synthesis by Western Blotting. Conditioned culture media was collected from each well and stored at −20° C. for analysis of soluble collagen. Cellular protein, including insoluble collagen and collagen still within the NHFs, were isolated by adding 100-200 μL, of cell lysis buffer (0.01 M Tris, pH 7.4, 0.001 M Sodium Orthovanadate, 1% sodium dodecylsulfate [SDS]) to each well and incubating 10 minutes at room temperature. Prior to addition, cell lysis buffer was warmed to facilitate solubilization of SDS and 100 u L of Halt protease inhibitor (Pierce Biotechnology, Rockford, IL) was added per 10 mL buffer to be used. After incubation, the well bottoms were scraped and liquid transferred to a microcentrifuge tube for storage at −20° C. Protein concentrations of cell lysates were determined using a Micro BCA assay (Pierce). SDS-PAGE samples were prepared by combining either 10 μg of cell lysate or 30 μL of conditioned media with XT loading buffer (BioRad, Hercules, CA), dithiothreitol and boiled for five minutes. Samples were loaded onto 3-8% Tris-Acetate Criterion X T gels (BioRad, Hercules, CA) and proteins separated at 140V. After electrophoresis, proteins were transferred onto […] nitrocellulose membranes (BioRad) overnight at room temperature (Transfer buffer: 25 mM Tris, 192 mM Glycine, 20% Methanol, 0.01% SDS). The presence of collagen was determined by probing the membranes with a rabbit anti-mouse collagen type I antibody (MD Biosciences) at 1:20,000 dilution in blocking buffer (5% milk in Tris-buffered saline) followed by a goat anti-rabbit IgG horseradish peroxidase conjugated antibody at 1:100,000 (Southern Biotech Associates) and detection with Pierce SuperSignal Femto West detection reagent (Pierce). To assess the activity of JM1 and JM2 peptides with respect to collagen production and their potential in mediating wound healing, cardiac fibroblasts were treated with these two peptides and their effectiveness compared to that for the previous described Cx43 peptide ACT1. NHFs were treated with various concentrations of JM1, JM2, ACT1, and ANT (Antennapedia) peptides, vehicle (water) or left untreated and the production of collagen both in the culture media and cell-associated collagen assessed by western blotting. […] To evaluate the impact of the poly-Arginine (poly-r)N-terminal sequence on JM1 and Jm2 activity, NHF cells were treated with a poly-r peptide.
compound,measurement,setting,value
Nc1ncnc2c1ncn2[C@@H]1O[C@H](COP(=O)(O)OP(=O)(O)OP(=O)(O)O)[C@@H](O)[C@H]1O [ATP],inflammatory infiltrate,silicon wafer implants,profound increase in inflammatory infiltrate; also recorded: more inflammatory infiltrate than the surgery alone
RQPKIWFPNRRKPWKK RPRPAALEI (RQPKIWFPNRRKPWKKRPRPAALEI) [M2 AALEI],PDZ2 melt temperature (Tm),ZO-1 PDZ2,did not alter the melt temperature of PDZ2
same,Cx43 CT melt temperature (Tm),Cx43 CT,no propensity to alter Cx43 CT thermal stability
same,Cx43 S368 phosphorylation,[1],"neither M1 AALAI (SEQ ID NO: 134), M2 AALEI (SEQ ID NO: 135) nor M3 DDLAI (SEQ ID NO: 136) increased Cx43 S368 phosphorylation"
same,SPR binding to Cx43 CT,[2],abrogated peptide interaction with Cx43 CT; also recorded: limited ability to bind Cx43 CT
same,SPR binding to Cx43 CT-KK/QQ,Cx43 CT-KK/QQ,unable mediate interactions
VFFKGVKDRV [JM1],tissue reaction zone,silicon wafer implants,substantially narrower tissue reaction zone
same,Cx43 and ZO-1 localization,Cx43-Hela cells,greater cytoplasmic Cx43 was observed; also recorded: ZO-1 cell border labeling was enhanced
same,toxicity (cell death),Cx43-HeLa,no obvious toxicity
same,mature type I collagen in conditioned media,[3]; 180 μM,no mature type I collagen was detected
same,mature type I collagen in conditioned media,"[3]; 30, 90, 180 µM","dose-dependent decrease in the production of mature, type I collagen"
same,collagen produced versus poly-r peptide,[3]; about 90 μM,less than half of that produced by cells treated with the poly-r peptide
same,mature type I collagen in cell lysate,[3]; versus ACT1 peptide,more profound reduction in the amount of mature type I collagen
apyrase,inflammatory infiltrate,silicon wafer implants,significantly reduced the inflammatory infiltrate
